Values after ≈ are worked out from the molar mass of the structure shown. Active and inactive are the calls of the source. No cut-off for these calls is given here.
Experiments:
Cell membrane = assay: Induction of cell membrane depolarization in Staphylococcus aureus MTCC-96 assessed as increase in fluorescence intensity at 30 uM by DiSC3-5 dye based fluorescence method; type: subcellular; conditions: filed as opener
Staphylococcus aureus [1] = assay: Disruption of membrane integrity in Staphylococcus aureus MTCC-96 assessed as increase in fluorescence intensity by PI staining based fluorescence analysis; type: functional, organism-based
Escherichia coli = assay: Antibacterial activity against Escherichia coli MTCC 1687 assessed as reduction in bacterial growth incubated for 14 to 16 hrs by microbroth dilution method; type: functional; conditions: time 14-16 hrs
Staphylococcus aureus [2] = assay: (§1) Antibacterial activity against gentamicin-and methicillin-resistant Staphylococcus aureus ATCC 33592 assessed as reduction in bacterial growth incubated for 14 to 16 hrs by microbroth dilution method; type: functional; conditions: time 14-16 hrs
Staphylococcus aureus [3] = assay: Antibacterial activity against Staphylococcus aureus MTCC-96 assessed as reduction in bacterial growth incubated for 14 to 16 hrs by microbroth dilution method; type: functional; conditions: time 14-16 hrs
Staphylococcus aureus [4] = assay: as §1, with “hrs in presence of 1 uM 1-(2-(1H-benzo[d]imidazol-1-yl)quinolin-8-yl)-3-(3,5-bis(trifluoromethyl)phenyl)thiourea and 100 uM ZnCl2” for “hrs”; type: functional; conditions: time 14-16 hrs
Staphylococcus aureus [5] = assay: Potency index, ratio of compound MIC to compound MIC in presence of 1 uM 1-(2-(1H-benzo[d]imidazol-1-yl)quinolin-8-yl)-3-(3,5-bis(trifluoromethyl)phenyl)thiourea and 200 uM ZnCl2 for antibacterial activity against gentamicin-and methicillin-resistant Staphylococcus aureus ATCC 33592; type: functional
Staphylococcus aureus [6] = assay: as §1, with “hrs in presence of 1 uM 1-(2-(1H-benzo[d]imidazol-1-yl)quinolin-8-yl)-3-(3,5-bis(trifluoromethyl)phenyl)thiourea” for “hrs”; type: functional; conditions: time 14-16 hrs
Staphylococcus aureus [7] = assay: (§2) Antibacterial activity against gentamicin-and methicillin-resistant Staphylococcus aureus ATCC 33592 assessed as reduction in bacterial growth incubated for 14 to 16 hrs in presence of 200 uM ZnCl2 by microbroth dilution method; type: functional; conditions: time 14-16 hrs
Staphylococcus aureus [8] = assay: as §2, with “2 uM 1-(2-(1H-benzo[d]imidazol-1-yl)quinolin-8-yl)-3-(3,5-bis(trifluoromethyl)phenyl)thiourea and 50” for “200”; type: functional; conditions: time 14-16 hrs
Staphylococcus aureus [9] = assay: as §2, with “of 1 uM 1-(2-(1H-benzo[d]imidazol-1-yl)quinolin-8-yl)-3-(3,5-bis(trifluoromethyl)phenyl)thiourea and” for “of”; type: functional; conditions: time 14-16 hrs
Staphylococcus aureus [10] = assay: Antibacterial activity against gentamicin-and methicillin-resistant Staphylococcus aureus ATCC 33592 assessed as reduction in bacterial growth incubated for 14 to 16 hrs in presence of 100 uM ZnCl2 by microbroth dilution method; type: functional; conditions: time 14-16 hrs
Staphylococcus aureus [11] = assay: as §2, with “1 uM 1-(2-(1H-benzo[d]imidazol-1-yl)quinolin-8-yl)-3-(3,5-bis(trifluoromethyl)phenyl)thiourea and 50” for “200”; type: functional; conditions: time 14-16 hrs

Row | SMILES | Activity (Cell membrane) | Activity (Staphylococcus aureus [1]) | MIC (Escherichia coli) [µM] | MIC (Staphylococcus aureus [2]) [µM] | MIC (Staphylococcus aureus [3]) [µM] | MIC (Staphylococcus aureus [4]) [µM] | Ratio (Staphylococcus aureus [5]) | MIC (Staphylococcus aureus [6]) [µM] | MIC (Staphylococcus aureus [7]) [µM] | MIC (Staphylococcus aureus [8]) [µM] | MIC (Staphylococcus aureus [9]) [µM] | MIC (Staphylococcus aureus [10]) [µM] | MIC (Staphylococcus aureus [11]) [µM]
1 | CC(C)[C@@H]1NC(=O)[C@H](C)OC(=O)[C@@H](C(C)C)NC(=O)[C@@H](C(C)C)OC(=O)[C@H](C(C)C)NC(=O)[C@H](C)OC(=O)[C@@H](C(C)C)NC(=O)[C@@H](C(C)C)OC(=O)[C@H](C(C)C)NC(=O)[C@H](C)OC(=O)[C@@H](C(C)C)NC(=O)[C@@H](C(C)C)OC1=O | Active | – | – | – | – | – | – | – | – | – | – | – | –
2 | O=C(O)c1cn(C2CC2)c2cc(N3CCNCC3)c(F)cc2c1=O [CIPROFLOXACIN] | – | inactive | 0.51 (≈ 0.169 µg/mL) | 1.5 (≈ 0.497 µg/mL) | 0.45 (≈ 0.149 µg/mL) | – | – | – | – | – | – | – | –
3 | CC1(C)S[C@@H]2[C@H](NC(=O)[C@H](N)c3ccccc3)C(=O)N2[C@H]1C(=O)O [AMPICILLIN] | – | – | – | 134 (≈ 46.8 µg/mL) | – | 0.03 | 4466 | 2.1 | 134 | 0.03 | 0.03 | 134 | 2

— ChEMBL document CHEMBL5360614, “Quinoline Thiourea-Based Zinc Ionophores with Antibacterial Activity” (J Med Chem, 2023)
